Measured values from US9278990B2, “Substituted nucleotide analogs” (priority 2010, dated 2016).

System: Huh-7 cells containing the self-replicating, subgenomic HCV replicon
Assay: HCV replicon assay (luciferase reporter)
Type: cell-based
Details: Hepatitis C virus, Huh-7, 72 h
Description: Huh-7 cells containing the self-replicating, subgenomic HCV replicon with a stable luciferase (LUC) reporter were cultured in Dulbecco's modified Eagle's medium (DMEM) containing 2 mM L-glutamine and supplemented with 10% heat-inactivated fetal bovine serum (FBS), 1% penicillin-streptomyocin, 1% nonessential amino acids, and 0.5 mg/mL G418.
On the first day, 5,000 HCV replicon cells were plated per well in a 96-well plate. On the following day, test compounds were solubilized in 100% DMSO to 100× the desired final testing concentration. Each compound was then serially diluted (1:3) up to 9 different concentrations. Compounds in 100% DMSO are reduced to 10% DMSO by diluting 1:10 in cell culture media. The compounds were diluted to 10% DMSO with cell culture media, which were used to dose the HCV replicon cells in 96-well format. The final DMSO concentration was 1%. The HCV replicon cells were incubated at 37° C. for 72 hours. At 72 hours, cells were processed when the cells are still subconfluent. Compounds that reduce the LUC signal are determined by Bright-Glo Luciferase Assay (Promega, Madison, Wis.). Percent Inhibition was determined for each compound concentration in relation to the control cells (untreated HCV replicon) to calculate the EC50.

Compound | EC50 [µM]
C[C@H](NP(=S)(OC[C@@]1(N=[N+]=[N-])O[C@@H](n2ccc(=O)[nH]c2=O)[C@H](O)[C@@H]1O)Oc1ccccc1)C(=O)OCC(C)(C)C (some centres unmarked) | 10 to 100
Cc1ccccc1OP(=S)(N[C@@H](C)C(=O)OC(C)C)OC[C@H]1O[C@@H](n2ccc(=O)[nH]c2=O)[C@](C)(O)[C@@H]1O (some centres unmarked) | < 1
COc1nc(N)nc2c1ncn2[C@@H]1O[C@H](COP(=S)(N[C@@H](C)C(=O)OCC(C)(C)C)Oc2ccccc2)[C@@H](O)[C@@]1(C)O (some centres unmarked) | < 1
COc1ccc(OP(=S)(N[C@@H](C)C(=O)OC(C)C)OC[C@H]2O[C@@H](n3ccc(=O)[nH]c3=O)[C@](C)(O)[C@@H]2O)cc1 (some centres unmarked) | < 1
C[C@H](NP(=S)(OC[C@H]1O[C@@H](n2ccc(=O)[nH]c2=O)[C@](C)(O)[C@@H]1O)Oc1cccc2ccccc12)C(=O)OC1CCCCC1 (some centres unmarked) | < 1
CC(C)OC(=O)[C@H](C)NP(=S)(OC[C@H]1O[C@@H](n2ccc(=O)[nH]c2=O)[C@](C)(O)[C@@H]1O)Oc1cccnc1 (some centres unmarked) | < 1
CC(C)OC(=O)[C@H](C)N[P@](=S)(OC[C@H]1O[C@@H](n2ccc(=O)[nH]c2=O)[C@](C)(O)[C@@H]1O)Oc1ccccc1 | < 1
C[C@H](NP(=S)(OC[C@H]1O[C@@H](n2cnc3c(=O)[nH]c(N)nc32)[C@](C)(O)[C@@H]1O)Oc1ccccc1)C(=O)OC1CCCCC1 (some centres unmarked) | < 1
CC(C)OC(=O)[C@H](C)NP(=S)(OC[C@H]1O[C@@H](n2ccc(=O)[nH]c2=O)[C@](C)(O)[C@@H]1O)Oc1cccc2ncccc12 (some centres unmarked) | < 1
CC(C)OC(=O)[C@H](C)NP(=S)(OC[C@H]1O[C@@H](n2ccc(=O)[nH]c2=O)[C@](C)(O)[C@@H]1O)Oc1ccc(F)cc1 (some centres unmarked) | < 1
CC(C)OC(=O)[C@H](Cc1ccccc1)NP(=S)(OC[C@H]1O[C@@H](n2ccc(=O)[nH]c2=O)[C@](C)(O)[C@@H]1O)Oc1ccccc1 (some centres unmarked) | 1 to 10
CC(C)OC(=O)[C@H](C)NP(=S)(OC[C@H]1O[C@@H](n2ccc(=O)[nH]c2=O)[C@](C)(O)[C@@H]1O)Oc1ccc(F)c(Cl)c1 (some centres unmarked) | < 1
CC(C)OC(=O)[C@H](C)NP(=S)(OC[C@H]1O[C@@H](n2cnc3c(=O)[nH]c(N)nc32)[C@](C)(O)[C@@H]1O)Oc1ccccc1 (some centres unmarked) | < 1
CC(C)OC(=O)[C@H](C)NP(=S)(OC[C@H]1O[C@@H](n2ccc(=O)[nH]c2=O)[C@](C)(O)[C@@H]1O)Oc1cccc2ccccc12 (some centres unmarked) | < 1
C[C@H](NP(=S)(OC[C@H]1O[C@@H](n2ccc(=O)[nH]c2=O)[C@](C)(O)[C@@H]1O)Oc1ccccc1)C(=O)OCC(C)(C)C (some centres unmarked) | < 1
C[C@H](NP(=S)(OC[C@H]1O[C@@H](n2ccc(=O)[nH]c2=O)[C@](C)(O)[C@@H]1O)Oc1ccccc1)C(=O)OC1CCCCC1 (some centres unmarked) | < 1
C[C@H](NP(=S)(OC[C@H]1O[C@@H](n2ccc(=O)[nH]c2=O)[C@](C)(F)[C@@H]1O)Oc1ccccc1)C(=O)OCC(C)(C)C (some centres unmarked) | < 1
CC(C)OC(=O)[C@@H](NP(=S)(OC[C@H]1O[C@@H](n2ccc(=O)[nH]c2=O)[C@](C)(O)[C@@H]1O)Oc1ccccc1)C(C)C (some centres unmarked) | 10 to 100
CC(C)OC(=O)[C@H](C)NP(=S)(OC[C@H]1O[C@@H](n2cnc3c(NC4CC4)nc(N)nc32)[C@](C)(O)[C@@H]1O)Oc1ccccc1 (some centres unmarked) | < 1

Compound | EC50 [µM]
COc1nc(N)nc2c1ncn2[C@@H]1O[C@H](COP(=S)(N[C@@H](C)C(=O)OC(C)C)Oc2ccccc2)[C@@H](O)[C@@]1(C)O (some centres unmarked) | < 1
COc1nc(N)nc2c1ncn2[C@@H]1O[C@H](COP(=S)(N[C@@H](C)C(=O)OCC(C)(C)C)Oc2cccc3ccccc23)[C@@H](O)[C@@]1(C)O (some centres unmarked) | < 1
COc1nc(N)nc2c1ncn2[C@@H]1O[C@H](COP(=S)(N[C@@H](C)C(=O)OC(C)C)Oc2ccccc2)[C@@H](O)[C@@]1(C)F (some centres unmarked) | < 1
CSCC[C@H](NP(=S)(OC[C@H]1O[C@@H](n2ccc(=O)[nH]c2=O)[C@](C)(O)[C@@H]1O)Oc1ccccc1)C(=O)OC(C)C (some centres unmarked) | 1 to 10
CCC[C@H](NP(=S)(OC[C@H]1O[C@@H](n2ccc(=O)[nH]c2=O)[C@](C)(O)[C@@H]1O)Oc1ccccc1)C(=O)OC(C)C (some centres unmarked) | < 1
CC(C)OC(=O)[C@H](C)NP(=S)(OC[C@H]1O[C@@H](n2ccc(=O)[nH]c2=O)[C@](C)(O)[C@@H]1O)Oc1ccc(Cl)cc1 (some centres unmarked) | < 1
C[C@H](NP(=S)(OC[C@H]1O[C@@H](n2ccc(=O)[nH]c2=O)[C@](C)(F)[C@@H]1O)Oc1ccccc1)C(=O)OC1CCCCC1 (some centres unmarked) | < 1
CC(C)C[C@H](NP(=S)(OC[C@H]1O[C@@H](n2ccc(=O)[nH]c2=O)[C@](C)(O)[C@@H]1O)Oc1ccccc1)C(=O)OC(C)C (some centres unmarked) | 1 to 10
CC(C)OC(=O)C(C)NP(=S)(OC[C@@]1(N=[N+]=[N-])O[C@@H](n2ccc(=O)[nH]c2=O)[C@H](O)[C@@H]1O)Oc1ccccc1 (some centres unmarked) | 10 to 100
C=CCNc1nc(N)nc2c1ncn2[C@@H]1O[C@H](COP(=S)(N[C@@H](C)C(=O)OC(C)C)Oc2ccccc2)[C@@H](O)[C@@]1(C)O (some centres unmarked) | < 1
CC(C)OC(=O)CNP(=S)(OC[C@H]1O[C@@H](n2ccc(=O)[nH]c2=O)[C@](C)(O)[C@@H]1O)Oc1ccccc1 (some centres unmarked) | 1 to 10
CC(C)OC(=O)[C@H](C)NP(=S)(OC[C@H]1O[C@@H](n2ccc(=O)[nH]c2=O)[C@](C)(F)[C@@H]1O)Oc1ccccc1 (some centres unmarked) | 1 to 10
C[C@H](NP(=S)(OC[C@H]1O[C@@H](n2cnc3c(=O)[nH]c(N)nc32)[C@](C)(F)[C@@H]1O)Oc1ccccc1)C(=O)OCC(C)(C)C (some centres unmarked) | < 1
C[C@H](NP(=S)(OC[C@H]1O[C@@H](n2ccc(=O)[nH]c2=O)[C@](C)(O)[C@@H]1O)Oc1cccc2ccccc12)C(=O)OCC(C)(C)C (some centres unmarked) | < 1
COc1nc(N)nc2c1ncn2[C@@H]1O[C@H](COP(=S)(N[C@@H](C)C(=O)OC2CCCCC2)Oc2cccc3ccccc23)[C@@H](O)[C@@]1(C)O (some centres unmarked) | < 1
Cc1ccc(OP(=S)(N[C@@H](C)C(=O)OC(C)C)OC[C@H]2O[C@@H](n3ccc(=O)[nH]c3=O)[C@](C)(O)[C@@H]2O)cc1 (some centres unmarked) | < 1
CC(C)OC(=O)[C@H](C)NP(=S)(OC[C@H]1O[C@@H](n2cnc3c(N)ncnc32)[C@](C)(O)[C@@H]1O)Oc1cccc2ccccc12 (some centres unmarked) | < 1
CC(C)OC(=O)[C@H](C)NP(=S)(OC[C@H]1O[C@@H](n2ccc(=O)[nH]c2=O)[C@](C)(O)[C@@H]1OC(=O)C(C)C)Oc1ccccc1 (some centres unmarked) | < 1
COc1nc(N)nc2c1ncn2[C@@H]1O[C@H](COP(=S)(NC(C)C(=O)OC(C)C)Oc2ccccc2)C(O)C1(C)O (some centres unmarked) | < 1

Compound | EC50 [µM]
CC(C)OC(=O)[C@H](C)NP(=S)(OC[C@H]1O[C@@H](n2ccc(=O)[nH]c2=O)[C@](C)(O)[C@@H]1O)Oc1ccccc1 (some centres unmarked) | < 1
CC(C)OC(=O)[C@H](C)NP(=S)(OC[C@H]1O[C@@H](n2ccc(=O)[nH]c2=O)[C@](C)(O)[C@@H]1O)Oc1ccccc1Cl (some centres unmarked) | < 1
C[C@H](NP(=S)(OC[C@H]1O[C@@H](n2cnc3c(=O)[nH]c(N)nc32)[C@](C)(O)[C@@H]1O)Oc1ccccc1)C(=O)OCC(C)(C)C (some centres unmarked) | < 1
[2H]C([2H])(OP(=S)(N[C@@H](C)C(=O)OC(C)C)Oc1ccccc1)[C@H]1O[C@@H](n2ccc(=O)[nH]c2=O)[C@](C)(O)[C@@H]1O (some centres unmarked) | < 1
CCC(=O)O[C@@H]1[C@@H](COP(=S)(N[C@@H](C)C(=O)OC(C)C)Oc2ccccc2)O[C@@H](n2ccc(=O)[nH]c2=O)[C@]1(C)O (some centres unmarked) | < 1
CC(C)OC(=O)[C@H](C)NP(=S)(OC[C@H]1O[C@@H](n2cnc3c(N)nc(N)nc32)[C@](C)(O)[C@@H]1O)Oc1ccccc1 (some centres unmarked) | < 1
CC(C)OC(=O)[C@H](C)NP(=S)(OC[C@@]1(N=[N+]=[N-])O[C@@H](n2ccc(=O)[nH]c2=O)[C@H](O)[C@@H]1O)Oc1ccccc1 (some centres unmarked) | 10 to 100
COC(=O)[C@H](C)NP(=S)(OC[C@H]1O[C@@H](n2ccc(=O)[nH]c2=O)[C@](C)(O)[C@@H]1O)Oc1cccc2ccccc12 (some centres unmarked) | < 1
COc1nc(N)nc2c1ncn2[C@@H]1O[C@H](COP(=S)(N[C@@H](C)C(=O)OC2CCCCC2)Oc2ccccc2)[C@@H](O)[C@@]1(C)O (some centres unmarked) | < 1
CC(C)OC(=O)[C@H](C)NP(=S)(OC[C@H]1O[C@@H](n2cnc3c(Cl)nc(N)nc32)[C@](C)(O)[C@@H]1O)Oc1ccccc1 (some centres unmarked) | < 1
CC(C)OC(=O)C(C)NP(=S)(OC[C@H]1O[C@@H](n2cnc3c(=O)[nH]c(N)nc32)C(C)(O)C1O)Oc1ccccc1 (some centres unmarked) | < 1
COc1nc(N)nc2c1ncn2[C@@H]1O[C@H](COP(=S)(NC(C)C(=O)OC(C)C)Oc2ccccc2)C(O)C1(C)F (some centres unmarked) | < 1
CC(C)OC(=O)[C@H](C)N[P@@](=S)(OC[C@H]1O[C@@H](n2ccc(=O)[nH]c2=O)[C@](C)(O)[C@@H]1O)Oc1ccccc1 | < 1
CC[C@H](NP(=S)(OC[C@H]1O[C@@H](n2ccc(=O)[nH]c2=O)[C@](C)(O)[C@@H]1O)Oc1ccccc1)C(=O)OC(C)C (some centres unmarked) | < 1
[2H]C([2H])(OP(=S)(N[C@@H](C)C(=O)OC(C)C)Oc1ccccc1)[C@H]1O[C@@H](n2ccc(=O)[nH]c2=O)[C@](C)(O)[C@@H]1OC(C)=O (some centres unmarked) | < 1
CC(C)OC(=O)[C@H](C)NP(=S)(OC[C@H]1O[C@@H](n2ccc(=O)[nH]c2=O)[C@](C)(OC(=O)C(C)C)[C@@H]1OC(=O)C(C)C)Oc1ccccc1 (some centres unmarked) | < 1
CCC(=O)O[C@@H]1[C@@H](COP(=S)(N[C@@H](C)C(=O)OC(C)C)Oc2ccccc2)O[C@@H](n2ccc(=O)[nH]c2=O)[C@]1(C)OC(=O)CC (some centres unmarked) | < 1
C[C@H](NP(=S)(OC[C@H]1O[C@@H](n2cnc3c(N)ncnc32)[C@](C)(O)[C@@H]1O)Oc1ccccc1)C(=O)OCC(C)(C)C (some centres unmarked) | < 1
